Reference: US20210223237A1, “COMPOSITIONS AND METHODS FOR STUDYING DRUG METABOLISM” (Boehringer Ingelheim International GmbH, priority 2020, published 2021)
Where two headings read alike, the source gives them in different places.

Key:
[1] = human, microsomes, 6 h, 1 μM
[2] = in vitro; settings: human, microsomes
[3] = cited from earlier work
[4] = HLM 0.005 mg/ml
[5] = in vitro; settings: human, pH 7.4
[6] = in vitro; settings: human, microsomes; remark: listed apart in the source
[7] = in vivo; cited from earlier work
[8] = Microsomal binding (fu,mic) using HLM-beads; settings: HLM-beads; HLM 1.0 mg/ml; compound 1.0 μM; (SD)
[9] = Non-specific binding of compounds to magnetizable beads alone; settings: 30 min incubation of beads (5.3×10^9 beads), bioanalysis of supernatant
[10] = tested on: CYP3A; assay: CYP3A-mediated midazolam 1′hydroxylation kinetics in HLM suspensions vs HLM-beads; parameters: Km, times higher with HLM-beads than with HLM suspensions: unit not given beside the values; settings: for microsomal CLint / Km: human; for microsomal CLint: pH 7.4; for Km: pH 7.4, probe midazolam (1′-hydroxylation)

Row | Compound | fu,mic [1] | fraction unbound at 6 h, 1 μM [2] | pKa [3] | depletion of parent midazolam ([4]; HLM suspensions, no new HLM added, up to 160 min) | metabolism of midazolam on exchange of used HLM-beads with fresh HLM-beads ([4]; HLM-bead relay every 20 minutes) | CLhep predicted at 1 μM [5] | microsomal CLint at 1 μM [5] | fraction unbound at 5 min, 1 μM [6] | blood clearance reported in the literature [7] | fu,mic [8] | non-specific binding to the beads [9] | Vmax ([10]; HLM suspensions) | Vmax ([10]; HLM-beads) | Km, times higher with HLM-beads than with HLM suspensions ([10]; HLM-beads vs HLM suspensions) | microsomal CLint ([10]; human liver microsomes (suspension)) | Km ([10]; human liver microsomes bound to beads (HLM-beads)) | Km ([10]; human liver microsomes in suspension (no beads)) | microsomal CLint [10]
1 | CC(=O)CC(c1ccccc1)c1c(O)c2ccccc2oc1=O (stereo not shown) [Warfarin, warfarin] | 0.86 (0.08) | 0.94 | 5.0 | – | – | – | – | – | – | – | – | – | – | – | – | – | – | –
2 | Cc1ncc2n1-c1ccc(Cl)cc1C(c1ccccc1F)=NC2 [Midazolam, midazolam] | – | 0.98 | – | No perceptible depletion | continued metabolism | 9.47 mL/min/kg | 842 µL/min/mg | 0.76 | 8.59 mL/min/kg | 0.53 (0.02) | not observed | 2002 ± 66 pmol/min/mg | 4350 ± 249^sig pmol/min/mg | ~3 × | 2830 µL/min/mg | 2.04 ± 0.23 µM | 0.612 ± 0.086 µM | 2130 µL/min/mg
